Molecular target: Nanoluciferase-BRD9 fusion protein (Homo sapiens (Human), UniProt Q9H8M2)
Test: SYO1 BRD9 NanoLuc degradation assay
Assay type: cell-based
Details: Table 5C, SYO-1 cells expressing 3×FLAG-NLuc-BRD9, 6 hours; for DC50: read-out: SYO1 BRD9-NanoLuc degradation IC50
Outline: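 Degradation was read as loss of nanoluciferase signal (Nano-Glo) after 6 h compound exposure in a stable SYO-1 line carrying 3×FLAG-NLuc-BRD9 (8000 cells/well). Normalised between DMSO (high) and a 1 μM known BRD9 degrader (low).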

Nanoluciferase-BRD9 fusion protein, sequence (Q9H8M2 whole entry, the tested form may be a part): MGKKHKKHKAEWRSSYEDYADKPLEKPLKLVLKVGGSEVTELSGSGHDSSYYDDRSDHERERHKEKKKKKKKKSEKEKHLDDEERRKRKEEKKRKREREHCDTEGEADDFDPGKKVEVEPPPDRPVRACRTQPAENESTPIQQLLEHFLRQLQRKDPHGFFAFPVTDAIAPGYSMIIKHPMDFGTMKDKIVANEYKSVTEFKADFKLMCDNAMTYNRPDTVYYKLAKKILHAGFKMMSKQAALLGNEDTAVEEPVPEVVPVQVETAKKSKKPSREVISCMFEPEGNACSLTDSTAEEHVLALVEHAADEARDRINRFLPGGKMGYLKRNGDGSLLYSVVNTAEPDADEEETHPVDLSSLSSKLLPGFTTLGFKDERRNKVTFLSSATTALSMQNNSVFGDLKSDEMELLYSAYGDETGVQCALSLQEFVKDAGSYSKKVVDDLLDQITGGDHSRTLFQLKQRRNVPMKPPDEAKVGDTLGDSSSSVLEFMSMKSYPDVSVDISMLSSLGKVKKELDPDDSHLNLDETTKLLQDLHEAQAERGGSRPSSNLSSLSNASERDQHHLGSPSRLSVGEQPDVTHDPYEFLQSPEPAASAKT

| DC50 [nM] | IC50 [nM] | SMILES |
| --- | --- | --- |
| < 10 | – | COc1cc(-c2cc(C(F)F)c(=O)n(C)c2)cc(OC)c1CN1CCC2(C1)CN(c1ccc3c(c1)C(=O)N(C1CCC(=O)NC1=O)C3)C2 (stereo not drawn) [Compound D403] |
| < 10 | – | C=CCn1cc(-c2cc(OC)c(CN3CCC4(C3)CN(c3ccc5c(c3)C(=O)N(C3CCC(=O)NC3=O)C5)C4)c(OC)c2)cc(C(F)F)c1=O (stereo not drawn) [Compound D404] |
| < 10 | – | COc1cc(-c2cn(C)c(=O)c3cn(C)nc23)cc(OC)c1CN1CCC(CN2CCC3(CC2)CN(c2ccc4c(c2)C(=O)N(C2CCC(=O)NC2=O)C4)C3)CC1 (stereo not drawn) [Compound D405] |
| < 10 | – | COc1cc(-c2cc(C(F)F)c(=O)n(C)c2)cc(OC)c1CN1CCC2(C1)CN(c1ccc3c(c1)C(=O)N(C1CCC(=O)NC1=O)C3=O)C2 (stereo not drawn) [Compound D406] |
| < 10 | – | COc1cc(-c2cc(C(F)F)c(=O)n(C)c2)cc(OC)c1CN1CCC(CN2CCC3(CC2)CN(c2ccc4c(c2)C(=O)N(C2CCC(=O)NC2=O)C4)C3)CC1 (stereo not drawn) [Compound D407] |
| < 10 | – | COc1cc(-c2cc(C(F)F)c(=O)n(C)c2)cc(OC)c1CN1CCC2(C1)CN(c1ccc3c(c1)CN(C1CCC(=O)NC1=O)C3=O)C2 (stereo not drawn) [Compound D408] |
| < 10 | – | COc1cc(-c2cc(C(F)F)c(=O)n(C)c2C)cc(OC)c1CN1CCC2(C1)CN(c1ccc3c(c1)C(=O)N(C1CCC(=O)NC1=O)C3)C2 (stereo not drawn) [Compound D409] |
| < 10 | – | COc1cc(-c2cc(C(F)F)c(=O)n(C)c2C)cc(OC)c1CN1CCC(CN2CCC3(CC2)CN(c2ccc4c(c2)C(=O)N(C2CCC(=O)NC2=O)C4)C3)CC1 (stereo not drawn) [Compound D410] |
| < 10 | – | COc1cc(-c2cn(C)c(=O)c3cnn(C)c23)cc(OC)c1CN1CCC2(CC1)CN(c1ccc3c(c1)CN(C1CCC(=O)NC1=O)C3=O)C2 (stereo not drawn) [Compound D411] |
| < 10 | – | COc1cc(-c2cn(C)c(=O)c3cn(C)nc23)cc(OC)c1CN1CCC2(CC1)CN(c1ccc3c(c1)CN(C1CCC(=O)NC1=O)C3=O)C2 (stereo not drawn) [Compound D412] |
| < 10 | – | COc1cc(-c2cn(C)c(=O)c3cnn(C)c23)cc(OC)c1CN1CCC2(CC1)CN(c1ccc3c(c1)C(=O)N(C1CCC(=O)NC1=O)C3=O)C2 (stereo not drawn) [Compound D413] |
| < 10 | – | COc1cc(-c2cn(C)c(=O)c3cnn(C)c23)cc(OC)c1CN1CCC2(CC1)CN(c1ccc3c(c1)C(=O)N(C1CCC(=O)NC1=O)C3)C2 (stereo not drawn) [Compound D414] |
| < 10 | – | COc1cc(-c2cn(C)c(=O)c3cn(C)nc23)cc(OC)c1CN1CCC2(CC1)CN(c1ccc3c(c1)C(=O)N(C1CCC(=O)NC1=O)C3=O)C2 (stereo not drawn) [Compound D415] |
| < 10 | – | COc1cc(-c2cn(C)c(=O)c3cn(C)nc23)cc(OC)c1CN1CCC2(CC1)CN(c1ccc3c(c1)C(=O)N(C1CCC(=O)NC1=O)C3)C2 (stereo not drawn) [Compound D416] |
| < 10 | – | CCn1cc2c(=O)n(C)cc(-c3cc(OC)c(CN4CCC5(CC4)CN(c4ccc6c(c4)C(=O)N(C4CCC(=O)NC4=O)C6)C5)c(OC)c3)c2n1 (stereo not drawn) [Compound D417] |
| < 10 | – | COc1cc(-c2cn(C)c(=O)c3[nH]cc(C)c23)cc(OC)c1CN1CCC2(CC1)CN(c1ccc3c(c1)C(=O)N(C1CCC(=O)NC1=O)C3=O)C2 (stereo not drawn) [Compound D418] |
| < 10 | – | COc1cc(-c2cn(C)c(=O)c3nn(C)cc23)cc(OC)c1CN1CCC2(CC1)CN(c1ccc3c(c1)C(=O)N(C1CCC(=O)NC1=O)C3)C2 (stereo not drawn) [Compound D421] |
| < 10 | – | COc1cc(-c2cn(C)c(=O)c3[nH]c(C)cc23)cc(OC)c1CN1CCC2(CC1)CN(c1ccc3c(c1)C(=O)N(C1CCC(=O)NC1=O)C3)C2 (stereo not drawn) [Compound D422] |
| < 10 | – | COc1cc(-c2cc(C)c(=O)n(C)c2C)cc(OC)c1CN1CCN(c2ccc3c(c2)CN(C2CCC(=O)NC2=O)C3=O)CC1 (stereo not drawn) [Compound D423] |
| < 10 | – | [2H]C([2H])([2H])n1cc(-c2cc(OC)c(CN3[C@H](C)CN(c4ccc5c(c4)C(=O)N(C4CCC(=O)NC4=O)C5)C[C@H]3C)c(OC)c2)c2nn(C)cc2c1=O (stereo partly drawn) [Compound D424] |
| < 10 | – | COc1cc(-c2cc(C(F)F)c(=O)n(C)c2)cc(OC)c1CN1CCC2(CC1)CN(c1ccc3c(c1)C(=O)N(C1CCC(=O)NC1=O)C3)C2 (stereo not drawn) [Compound D425] |
| < 10 | – | COc1cc(-c2cn(C)c(=O)c3[nH]cc(C)c23)cc(OC)c1CN1CCC2(CC1)CN(c1ccc3c(c1)C(=O)N(C1CCC(=O)NC1=O)C3)C2 (stereo not drawn) [Compound D426] |
| < 10 | – | COc1cc(-c2cc(C)c(=O)n(C)c2C)cc(OC)c1CN1CCN(c2ccc3c(c2)C(=O)N(C2CCC(=O)NC2=O)C3)CC1 (stereo not drawn) [Compound D427] |
| < 10 | – | COc1cc(-c2cn(C)c(=O)c3cncn23)cc(OC)c1CN1CCC2(CC1)CN(c1ccc3c(c1)C(=O)N(C1CCC(=O)NC1=O)C3)C2 (stereo not drawn) [Compound D428] |
| > 1000 | – | COc1cc(-c2cn(C)c(=O)cn2)cc(OC)c1CN1CCC2(CC1)CN(c1ccc3c(c1)C(=O)N(C1CCC(=O)NC1=O)C3)C2 (stereo not drawn) [Compound D429] |
| < 10 | – | COc1cc(-c2cn(C)c(=O)c(C)c2C)cc(OC)c1CN1CCC2(C1)CN(c1ccc3c(c1)C(=O)N(C1CCC(=O)NC1=O)C3=O)C2 (stereo not drawn) [Compound D430] |
| < 10 | – | COc1cc(-c2cn(C)c(=O)c3cccn23)cc(OC)c1CN1CCC2(CC1)CN(c1ccc3c(c1)C(=O)N(C1CCC(=O)NC1=O)C3)C2 (stereo not drawn) [Compound D431] |

| DC50 [nM] | IC50 [nM] | SMILES |
| --- | --- | --- |
| 10 to 100 | – | COc1cc(-c2cc(C(F)F)c(=O)n(C)c2)cc(OC)c1CN1CCC2(C1)CN(c1ccn3c(=O)n(C4CCC(=O)NC4=O)nc3c1)C2 (stereo not drawn) [Compound D432] |
| < 10 | – | COc1cc(-c2cn(C)c(=O)c3[nH]ncc23)cc(OC)c1CN1CCC2(CC1)CN(c1ccc3c(c1)C(=O)N(C1CCC(=O)NC1=O)C3)C2 (stereo not drawn) [Compound D433] |
| < 10 | – | COc1cc(-c2cn(C)c(=O)c3[nH]cnc23)cc(OC)c1CN1CCC2(CC1)CN(c1ccc3c(c1)C(=O)N(C1CCC(=O)NC1=O)C3)C2 (stereo not drawn) [Compound D434] |
| > 1000 | – | COc1cc(-c2ccn3c(=O)n(C)ccc23)cc(OC)c1CN1CCC2(CC1)CN(c1ccc3c(c1)C(=O)N(C1CCC(=O)NC1=O)C3)C2 (stereo not drawn) [Compound D435] |
| < 10 | – | COc1cc(-c2cn(C)c(=O)cc2C)cc(OC)c1CN1CCN(c2ccc3c(c2)C(=O)N(C2CCC(=O)NC2=O)C3=O)CC1 (stereo not drawn) [Compound D436] |
| > 1000 | – | COc1cc(-c2c(C)n(C)c(=O)c3[nH]c(C)cc23)cc(OC)c1CN1CCC2(CC1)CN(c1ccc3c(c1)C(=O)N(C1CCC(=O)NC1=O)C3)C2 (stereo not drawn) [Compound D437] |
| < 10 | – | COc1cc(-c2cc(C)c(=O)n(C)c2)cc(OC)c1CN1CC(C#Cc2ccc3c(c2)C(=O)N(C2CCC(=O)NC2=O)C3)C1 (stereo not drawn) [Compound D438] |
| < 10 | – | COc1cc(-c2cc(C)c(=O)n(C)c2)cc(OC)c1CN1CC(C#Cc2ccc3c(c2)CN(C2CCC(=O)NC2=O)C3=O)C1 (stereo not drawn) [Compound D440] |
| < 10 | – | COc1cc(-c2cc(C(F)F)c(=O)n(C)c2)cc(OC)c1CN1CC(C#Cc2ccc3c(c2)CN(C2CCC(=O)NC2=O)C3=O)C1 (stereo not drawn) [Compound D441] |
| < 10 | – | COc1cc(-c2cc(C)c(=O)n(C)c2)cc(OC)c1CN1CCC(C#Cc2ccc3c(c2)C(=O)N(C2CCC(=O)NC2=O)C3)C1 (stereo not drawn) [Compound D442] |
| < 10 | – | COc1cc(-c2cc(C)c(=O)n(C)c2)cc(OC)c1CN1CCC(C#Cc2ccc3c(c2)C(=O)N(C2CCC(=O)NC2=O)C3)CC1 (stereo not drawn) [Compound D443] |
| < 10 | – | COc1cc(-c2cc(C(F)F)c(=O)n(C)c2)cc(OC)c1CN1CCC(C#Cc2ccc3c(c2)C(=O)N(C2CCC(=O)NC2=O)C3)CC1 (stereo not drawn) [Compound D444] |
| > 1000 | – | COc1cc(-c2c(C)n(C)c(=O)c3[nH]cc(C)c23)cc(OC)c1CN1CCC2(CC1)CN(c1ccc3c(c1)C(=O)N(C1CCC(=O)NC1=O)C3=O)C2 (stereo not drawn) [Compound D445] |
| > 1000 | – | COc1cc(-c2c(C)n(C)c(=O)c3[nH]c(C)cc23)cc(OC)c1CN1CCC2(CC1)CN(c1ccc3c(c1)C(=O)N(C1CCC(=O)NC1=O)C3=O)C2 (stereo not drawn) [Compound D446] |
| 100 to 1000 | – | COc1cc(-c2cn(C)c(=O)c3nccn23)cc(OC)c1CN1CCC2(CC1)CN(c1ccc3c(c1)C(=O)N(C1CCC(=O)NC1=O)C3)C2 (stereo not drawn) [Compound D447] |
| < 10 | – | COc1cc(-c2cc(C)c(=O)n(C)c2)cc(OC)c1CN1CC(CCc2ccc3c(c2)C(=O)N(C2CCC(=O)NC2=O)C3)C1 (stereo not drawn) [Compound D448] |
| 10 to 100 | – | COc1cc(-c2cc(C)c(=O)n(C)c2)cc(OC)c1CN1CC(Cc2ccc3c(c2)C(=O)N(C2CCC(=O)NC2=O)C3)C1 (stereo not drawn) [Compound D449] |
| – | < 10 | COc1cc(-c2cc(C)c(=O)n(C)c2)cc(OC)c1CN1CC(C)(C#Cc2ccc3c(c2)C(=O)N(C2CCC(=O)NC2=O)C3)C1 (stereo not drawn) [Compound D450] |
| 10 to 100 | – | COc1cc(-c2cc(C(F)F)c(=O)n(C)c2)cc(OC)c1-c1ccc2c(c1)C(=O)N(C1CCC(=O)NC1=O)C2 (stereo not drawn) [Compound D451] |
| < 10 | – | COc1cc(-c2cc(C)c(=O)n(C)c2)cc(OC)c1CN1CCN(c2ccc3c(c2)C(=O)N(C2CCC(=O)NC2=O)C3)CC1 (stereo not drawn) [Compound D452] |
| – | < 10 | COc1cc(-c2cc(C)c(=O)n(C)c2)cc(OC)c1CN1CC(C#Cc2ccc3c(c2)C(=O)N(C2CCC(=O)NC2=O)C3)C1C (stereo not drawn) [Compound D453] |
| < 10 | – | C/C=C/Cn1cc(-c2cc(OC)c(CN3CCC4(CC3)CN(c3ccc5c(c3)C(=O)N(C3CCC(=O)NC3=O)C5)C4)c(OC)c2)n2cncc2c1=O (stereo not drawn) [Compound D454] |
| < 10 | – | COc1cc(-c2cc(C(F)F)c(=O)n(C)c2)cc(OC)c1C1CN(c2ccc3c(c2)C(=O)N(C2CCC(=O)NC2=O)C3)C1 (stereo not drawn) [Compound D455] |
| < 10 | – | COc1cc(-c2cn(C)c(=O)c3ccnn23)cc(OC)c1CN1CCC2(CC1)CN(c1ccc3c(c1)C(=O)N(C1CCC(=O)NC1=O)C3)C2 (stereo not drawn) [Compound D456] |
| < 10 | – | COc1cc(-c2cc(C)c(=O)n(C)c2)cc(OC)c1CN1CC(/C=C/c2ccc3c(c2)C(=O)N(C2CCC(=O)NC2=O)C3)C1 (stereo not drawn) [Compound D457] |
| < 10 | – | Cc1cc(-c2ccc(N3CCN(c4ccc5c(c4)C(=O)N(C4CCC(=O)NC4=O)C5)CC3)cc2)cn(C)c1=O (stereo not drawn) [Compound D459] |
| < 10 | – | Cc1cc(-c2ccc(CN3CCN(c4ccc5c(c4)C(=O)N(C4CCC(=O)NC4=O)C5)CC3)cc2)cn(C)c1=O (stereo not drawn) [Compound D460] |
